Assay results reported in paper PMC8151276, “An Integrated Approach toward NanoBRET Tracers for Analysis of GPCR Ligand Engagement” (Molecules, 2021).

Experiments:
Assay type in all cases: binding
[1] = target: T1, F2RL2 (Homo sapiens, UniProt O00254); assay: NanoBRET screen HiBiT-F2RL2 in HEK293
T1 construct: purchased Promega (in-house HiBiT-GPCR construct library, NanoBRET)
T1 sequence (O00254 22-374): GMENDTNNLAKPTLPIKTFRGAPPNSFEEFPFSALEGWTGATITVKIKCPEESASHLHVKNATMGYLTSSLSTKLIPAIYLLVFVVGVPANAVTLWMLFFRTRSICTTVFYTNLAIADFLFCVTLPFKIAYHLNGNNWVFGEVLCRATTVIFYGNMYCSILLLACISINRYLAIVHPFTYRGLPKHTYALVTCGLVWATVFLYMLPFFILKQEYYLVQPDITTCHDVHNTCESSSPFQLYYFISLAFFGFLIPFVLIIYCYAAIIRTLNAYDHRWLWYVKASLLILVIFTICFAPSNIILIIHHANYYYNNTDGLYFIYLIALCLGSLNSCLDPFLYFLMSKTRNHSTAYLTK
Method: (§1) Each tracer candidate was screened across the entire library of HiBiT-GPCR constructs using NanoBRET as the detection modality. As depicted in Figure 4A, the specificity of interactions was evaluated through decrease in BRET due to competitive displacement of a bound tracer by excess parental compound. Each tracer was analyzed for binding to each HiBiT-GPCR fusion in the absence and in the presence of competing parental compound. Briefly, HEK293 cells were transfected with HiBiT-GPCR constructs diluted into promoterless DNA to reduce expression and maximize translocation to the cell surface. Each tracer candidate was then screened at concentrations of 1 μM and 0.1 μM across cells expressing these fusions. Cells were treated for 1.5 h with tracer either alone or in the presence of 20 μM competing parental compound (i.e., control). BRET was measured upon addition of purified LgBiT and subsequent complementation with HiBiT genetically fused to a GPCR. The specificity of interactions was assessed through a decrease in BRET signal due to competitive displacement of the bound tracer. To further gauge the robustness of these interactions, the fold response over the control (i.e., BRETtracer/BRETcontrol) was calculated. We chose a 1.5-fold response, which translates to ≥7-fold signal over noise as the minimal threshold required to score an interaction as positive. […]. Below we highlight the screening results obtained for our exemplary fluorescent tracers based on Clozapine, Amitriptyline and AZD1283.
(§2) HiBiT-GPCR DNA constructs were diluted in 10 mM Tris pH 8 to a final concentration of 0.01 μg/μL, arrayed in 96-well plates and stored at −20 °C. For transfection, HEK293 cells were suspended in Opti-MEM (without phenol red) supplemented with 2% fetal bovine serum (Seradigm) and 100 units/mL penicillin–streptomycin (Gibco) at a final concentration of 220,000 cells/mL and dispensed into white 96-well plates at 90 μL/well. Subsequent transfections and screens were carried using an Agilent Bravo Automated Liquid Handling Platform. First, the 96-well HiBiT DNA arrays were diluted 25-fold in Opti-MEM (without serum or phenol red) to a final concentration of 0.0004 μg/μL and 20 μL of the diluted DNAs were transferred into new 96-well plates. Next, promoterless carrier DNA (1 μg/μL) was diluted 25-fold (0.04 μg/μL) and then dispensed into the diluted arrays at 20 μL/well. Following brief mixing, Viafect transfection reagent (Promega) diluted 16-fold into Opti-MEM was dispensed into the plates at 40 μL/well. After mixing by pipetting, plates were incubated for 10 min on the pipetting station deck. The DNA-transfection reagent complexes were then added to plates containing cells. To facilitate the screen, 10 μL of DNA-transfection reagent complexes were added in duplicates to the top 4 and bottom 4 rows, resulting in two identical 48-well arrays per plate. Plates with transfected cells were incubated for 18–20 h at 37 °C/5% CO2. A screen of each tracer across the entire library using two different concentrations requires duplicate plates of transfected cells. Depending on the number of tracers being screened, transfections can be scaled up using the same ratios. The next day, for each tracer, four 20× screening solutions in tracer dilution buffer (Promega) were prepared: two duplicates at final concentration of 20 μM and two duplicates at a final concentration of 2 μM. A competing unmodified compound was added to one of each duplicate at a final concentration of 400 μM. The four resulting solutions were diluted 4-fold in Opti-MEM without serum or phenol red to generate 5× solutions (5 µM and 0.5 µM tracer +/− 100 μM competing compound). To screen the library, a BioTek MultiFlo FX liquid dispenser was used to dispense 22.5 µL of tracer solution to the top 4 rows and 22.5 µL tracer + competing compound solution to the 4 bottom rows. Plates were briefly mixed on an orbital shaker and incubated for 1.5 h at room temperature. […]

[2] = target: T2, PTGDR2 (Homo sapiens, UniProt Q9Y5Y4); assay: NanoBRET screen HiBiT-PTGDR2 in HEK293; settings: PTGDR2
T2 construct: purchased Promega (in-house HiBiT-GPCR construct library, NanoBRET)
T2 sequence (Q9Y5Y4 1-395): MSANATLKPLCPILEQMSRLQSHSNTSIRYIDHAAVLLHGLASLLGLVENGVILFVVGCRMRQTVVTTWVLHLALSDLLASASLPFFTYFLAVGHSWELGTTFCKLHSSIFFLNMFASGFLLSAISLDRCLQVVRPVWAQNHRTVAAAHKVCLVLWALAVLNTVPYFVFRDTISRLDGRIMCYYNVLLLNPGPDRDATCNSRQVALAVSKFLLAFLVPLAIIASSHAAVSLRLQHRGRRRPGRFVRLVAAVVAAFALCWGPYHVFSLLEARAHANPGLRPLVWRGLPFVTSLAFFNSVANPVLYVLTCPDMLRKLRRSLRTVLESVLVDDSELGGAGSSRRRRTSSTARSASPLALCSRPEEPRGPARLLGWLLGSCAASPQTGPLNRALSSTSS
Method: as §1, §2

[3] = target: T3, GCGR (Homo sapiens, UniProt P47871); assay: NanoBRET screen HiBiT-GCGR in HEK293; settings: GCGR
T3 construct: purchased Promega (in-house HiBiT-GPCR construct library, NanoBRET)
Method: as §1, §2

T3 sequence (P47871 26-477): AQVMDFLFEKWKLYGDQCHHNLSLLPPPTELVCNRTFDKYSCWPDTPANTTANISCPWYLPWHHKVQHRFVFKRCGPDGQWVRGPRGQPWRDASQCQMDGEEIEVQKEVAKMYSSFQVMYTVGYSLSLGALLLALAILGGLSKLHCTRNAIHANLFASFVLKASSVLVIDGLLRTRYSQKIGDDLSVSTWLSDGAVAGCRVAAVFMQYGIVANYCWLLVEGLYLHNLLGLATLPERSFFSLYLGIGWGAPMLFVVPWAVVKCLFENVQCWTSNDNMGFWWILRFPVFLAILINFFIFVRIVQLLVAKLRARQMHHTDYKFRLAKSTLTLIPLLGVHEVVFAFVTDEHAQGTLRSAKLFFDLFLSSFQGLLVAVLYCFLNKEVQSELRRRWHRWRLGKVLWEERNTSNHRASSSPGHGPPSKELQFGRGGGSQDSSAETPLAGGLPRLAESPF

| SMILES | NanoBRET Fold Response ([1]; F2RL2, tracer 0.1μM) | NanoBRET Fold Response ([1]; F2RL2, tracer 1μM) | NanoBRET Fold Response ([2]; tracer 0.1μM) | NanoBRET Fold Response ([2]; tracer 1μM) | NanoBRET Fold Response ([3]; tracer 0.1μM) | NanoBRET Fold Response ([3]; tracer 1μM) | NanoBRET Fold Response ([1]; tracer at 0.1μM) | NanoBRET Fold Response ([1]; tracer at 1μM) | NanoBRET Fold Response ([1]; F2RL2, 0.1μM) | NanoBRET Fold Response ([1]; F2RL2, 1μM) | NanoBRET Fold Response ([2]; 0.1μM) | NanoBRET Fold Response ([2]; 1μM) | NanoBRET Fold Response ([3]; 0.1μM) | NanoBRET Fold Response ([3]; 1μM) |
| --- | --- | --- | --- | --- | --- | --- | --- | --- | --- | --- | --- | --- | --- | --- |
| O=C(CCOCCOCCOCCOCCNC(=O)CCc1ccc2n1[B-](F)(F)[N+]1=C(c3ccc[nH]3)C=CC1=C2)NCCCN1CCN(C2=Nc3ccccc3Oc3ccc(Cl)cc32)CC1 [Loxapine-a-2-NB590] | 1.03 | 1.12 | 1.06 | 1.04 | 1.05 | 1.24 |  |  |  |  |  |  |  |  |
| CCCn1c(=O)c2[nH]c(-c3ccc(OCC(=O)NCCNC(=O)CCOCCNC(=O)c4ccc(CNC(=O)CCc5ccc6n5[B-](F)(F)[N+]5=C(c7ccc[nH]7)C=CC5=C6)cc4)cc3)nc2n(CCC)c1=O [XAC-3-NB590] | 0.95 | 1.04 | 1.00 | 1.06 | 1.03 | 0.96 |  |  |  |  |  |  |  |  |
| CN(C)CCC=C1c2ccccc2CCc2ccc(C(=O)NCCNC(=O)CCOCCOCCOCCOCCNC(=O)CCc3ccc4n3[B-](F)(F)[N+]3=C(c5ccc[nH]5)C=CC3=C4)cc21 [Amitriptyline-a-2-NB590] |  |  |  |  |  |  | 1.03 | 0.99 |  |  |  |  |  |  |
| COc1ccccc1N1CCN(CCCCN2C(=O)c3ccc(CNC(=O)CCOCCOCCOCCOCCNC(=O)CCc4ccc5n4[B-](F)(F)[N+]4=C(c6ccc[nH]6)C=CC4=C5)cc3C2=O)CC1 [NAN-190-2-NB590] | 1.02 | 1.01 |  | 1.02 | 1.06 | 1.06 |  |  |  |  |  |  |  |  |
| O=C(CCc1ccc2n1[B-](F)(F)[N+]1=C(c3ccc[nH]3)C=CC1=C2)NCc1ccc(C(=O)NCCOCCOCCNCC(O)COc2cccc3ccccc23)cc1 (stereo not shown) [Propranolol-3-NB590] |  |  |  |  |  |  |  |  | 0.99 | 1.03 | 0.96 | 1.06 | 1.03 | 0.96 |
| COc1ccccc1N1CCN(CCCCN2C(=O)c3ccc(CNC(=O)CCOCCNC(=O)c4ccc(CNC(=O)CCc5ccc6n5[B-](F)(F)[N+]5=C(c7ccc[nH]7)C=CC5=C6)cc4)cc3C2=O)CC1 [NAN-190-3-NB590] | 1.10 | 0.95 | 0.87 | 0.85 | 0.84 | 0.76 |  |  |  |  |  |  |  |  |
| O=C(CCc1ccc2n1[B-](F)(F)[N+]1=C(c3ccc[nH]3)C=CC1=C2)NCc1ccc(C(=O)NCCOCCC(=O)N[C@@H]2CC[C@@]3(O)[C@H]4Cc5ccc(O)c6c5[C@@]3(CCN4CC3CC3)[C@H]2O6)cc1 [Naltrexone-3-NB590] | 1.07 | 1.02 | 0.98 | 1.00 | 1.06 | 0.92 |  |  |  |  |  |  |  |  |
| CCOC(=O)c1cc(C#N)c(N2CCC(C(=O)NS(=O)(=O)Cc3ccccc3/C=C/C(=O)NCCNC(=O)CCc3ccc4n3[B-](F)(F)[N+]3=C(c5ccc[nH]5)C=CC3=C4)CC2)nc1C [AZD1283-1-NB590] |  |  |  |  |  |  |  |  | 1.01 | 1.12 | 1.07 | 1.03 | 1.05 | 1.12 |
